Measurements published in PMC5570892, “Indole-based perenosins as highly potent HCl transporters and potential anti-cancer agents” (Scientific Reports, 2017).

Experiments:
MDA-MB-231 cells = test: Annexin-V flow cytometric apoptosis assay; format: cell-based, human
Protocol: The specific late onset of affecting cell viability induced by perenosins is interesting, and to the best of our knowledge this phenomenon has not been observed for other anion transporters. […] It is known that synthetic transporters can disrupt ion homeostasis in cells and induce cell death via an apoptotic pathway, [22], [32], [63], [64].
S11.3 Apoptosis Evaluation through Annexin-V Assay
MDA-MB-231 cells (1x10^5 cells) were seeded in 6-well plates and, after 24 h, they were treated with […]
Afterwards, cells were detached, centrifuged at 300 g for 5 min and resuspended in 1 ml of 1X PBS-1% FBS. Then, 100 µl of cell suspension were mixed with Annexin-V kit buffer (1:1; Muse Annexin V & Dead Cell Assay, Merck Millipore, Merck KGaA, Darmstadt, Germany). After 20 min incubation at room temperature, cells were examined on the Muse™ Cell Analyzer (Merck Millipore). All the conditions were assessed in three independent experiments. Results are shown as the mean value ± S.D. and representative results are shown in the […]
Figure S154. Flow cytometry of MDA-MB-231 cells treated with IC50 concentrations of compound 2 and 6 for 48 and 72 hours plus 10 µM of compound 6 for 72 h. Axes show Annexin-V binding versus […]
(1 picture or pasted object on this page, not shown here)

[1] = Stability in aqueous solution by UV-Vis; format: physicochemical; conditions: hexafluorophosphate buffered DMSO:water 50:50, pH 7.4, after 6 hours
Protocol: S7.1 Stability in Aqueous Solution
Stability studies were performed for the perenosins in aqueous solution using UV-Vis spectroscopy to probe the lifetime of compounds 1d and 2-8 over the course of the transport experiments. The receptors (10 μL, 25 mM) were added to a hexafluorophosphate buffered (100 mM) DMSO:water 50:50 solution (4990 μL) and the pH was adjusted to either 7.2 or 4.6 using hexafluorophosphoric acid. Spectra were collected at 1 minute intervals over a period of 30 minutes.
Figure S50. Absorbance spectra taken over 30 minutes of 1d (25 mM) in a hexafluorophosphate buffered (100 mM) DMSO:water 50:50 mixture. a) pH 7.2 b) pH 4.6 […]
Figure S51. Absorbance spectra taken over 30 minutes of 2 (25 mM) in a hexafluorophosphate […]
The spectra obtained at pH 7.2 for compounds 1d and 2-8 show no notable change in the […]
conditions. However, the spectra obtained at pH 4.6 for compounds 1d and 2-4 show a decreasing peak at ~400 nm corresponding to the perenosins, and an increasing peak at ~300 nm corresponding to the breakdown product (both are marked with an arrow). The change in spectra […]
Spectra were collected periodically over 72 hours to monitor the change in the UV -vis absorbance.
Figure S58. Absorbance spectra taken periodically over 72 hours of 1d (25 mM) in a hexafluorophosphate buffered (100 mM) DMSO:water 50:50 mixture at pH 7.4 […]

[2] = Cationophore coupled KCl efflux ISE assay (valinomycin or monensin); format: biochemical; conditions: perenosins 0.1 mol%, prodigiosin 0.01 mol%, monensin 0.1 mol%, pH 7.2
Protocol: Herein, we employed two recently reported complementary cationophore coupled assays[19] to unambiguously confirm H^+/Cl^− symport facilitated by perenosins is a strictly inseparable process. Briefly, unilamellar vesicles were prepared with an internal solution of KCl (300 mM) and an external solution of K2SO4 (150 mM), buffered to pH 7.2 with potassium phosphate salts (5 mM). The naturally occurring cationophores valinomycin and monensin were either added alone, or in combination with a perenosin and the resulting chloride efflux, driven by a large chloride concentration gradient, was monitored using a chloride ISE. […] In contrast, monensin functions as an electroneutral transporter. […]
Figure S130. […] The final chloride efflux reading was taken a t 9 mins and was used as the 100% chloride efflux value. […]
The lipid stock solution was diluted with the external buffer solution to a standard volume (5 mL), to afford a solution with a lipid concentration of 1 mM. […] The compounds were added as a DMSO solution (0.1 mol% (with respect to lipid), 10 μL) to start the experiment and the resulting chloride efflux was monitored using a chloride selective electrode over 5 minutes. After this time, detergent (50 μL of Triron X-100 (11 w%) in H2O:DMSO (7:1 v/v)) was added to lyse the vesicles and after 7 minutes a final chloride efflux reading was taken. […]

| Structure (SMILES) | apoptosis induction (Annexin-V) (MDA-MB-231 cells; at IC50 value, 48 h and 72 h) | apoptosis induction (Annexin-V) (MDA-MB-231 cells; 10 µM) | solubility during 72 h stability study [1] | chloride efflux coupled to monensin [2] |
| --- | --- | --- | --- | --- |
| CCCCCc1cc2cc(C)cc(/N=C/c3[nH]c(C)cc3C)c2[nH]1 [Perenosin 2] | clearly induces cell death by apoptosis |  |  |  |
| CCCCCc1cc2cc(C)cc(/N=C/c3[nH]c(C)c(CCCCC)c3C)c2[nH]1 [Perenosin 6] | slight increase in apoptotic cells | increase in both early and late apoptotic cell populations | poor solubility |  |
| CCCCCc1cc(/N=C/c2[nH]c3ccccc3c2C)c2[nH]ccc2c1 [Perenosin 7] |  |  |  | do not facilitate chloride transport |
| CCCCCc1cc2cc(C)cc(/N=C/c3[nH]c4ccccc4c3C)c2[nH]1 [Perenosin 8] |  |  |  | do not facilitate chloride transport |
